Each structure is given as a SMILES string. Where only a bound is given, the exact number is not on record here.

Data on 18 compounds can be found in patent US12583825B2, “Benzo[h]quinazolin-4-amine and thieno[3,2-h]quinazolin-4-amine derivatives for the treatment of cancer” (Redona Therapeutics, Inc., priority 2020, dated 2026).

Assay [1] concerns MDA-MB-231 cells. Kind of assay: MDA-MB-231 proliferation assay. Format: cell-based. Particulars: Homo sapiens, 72 hours, YO-PRO-1 readout. In short, it runs like this:
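Cells seeded at 750/well in DMEM with 10% FBS, treated 72 h at 37 °C, 0.5% DMSO final. Cell number read by YO-PRO-1 fluorescence (485/530 nm), normalised to DMSO (100%) and time-of-addition cells (0%); 4-parameter logistic fit with maximum fixed at 100%.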

Assay [2] has as its target T1, recombinant human CLK3 (Homo sapiens, UniProt P49761).
T1 construct: purchased Thermo Fisher Scientific PV3826
Briefly: CLK3 kinase assay (LANCE Ultra). The settings on record: 0.5 nM CLK3, 300 μM ATP, 3 hours at 30° C. Format: biochemical. The essentials: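 Recombinant human CLK3 (0.5 nM) phosphorylating ULight-CREBtide (50 nM) with 300 μM ATP for 3 h at 30 °C; stopped with EDTA, detected by LANCE Ultra TR-FRET using Eu-anti-phospho-CREB antibody (2 nM, 1 h). IC50 from sigmoidal 4-parameter fit.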

The test system of assay [3] is phospho-SRSF6 levels in MDA-MB-468 cells. Kind of assay: Inhibition of phospho-SRSF6 levels in MDA-MB-468 cells (Western blot). Format: cell-based. The settings on record: Homo sapiens, 100 nM, 2 hours, normalized by GAPDH, read-out: % Intensity of p-SRSF6 signal at 100 nM compared to DMSO control. As for the experimental part: FIG. 1: FIG. 1 provides a representative Western blot showing reduction of phosphorylated-SRSF6 (P-SRSF6) in MDA-MB 468 cells by compounds of the invention. GAPDH was probed for by Western blotting to control for equal protein loading and for normalization of samples. The numbers below the blots show percent intensity of P-SRSF6 signal at 100 nM compared to DMSO control.
Assessment of Inhibition of Phospho-SRSF6 Levels in MDA-MB-468 Cells
MDA-MB-468 cells (ATCC, HTB-132) were cultured in DMEM (BioConcept cat. no. 1-26F03) supplemented with 10% FBS (Sigma cat. no. F9665), 1% Na-pyruvate (Sigma cat. no. S8636), 1% Penicillin-Streptomycin (BioConcept cat. no. 4-01F00-H). When cells reached a density of 70% in 6-well plates (TPP cat. no. 92006), they were treated either with the test compound vehicle DMSO, or with experimental compounds at a final concentration of 100 nM for 2 hours. Thereafter, the culture medium was removed and cells were collected by scraping in Lysis Buffer (20 mM Tris HCl pH7.5, 150 mM NaCl, 1 mM EGTA, 1 mM EDTA, 1% Triton and 1% NP-40) containing protease and phosphatase inhibitors (Halt™ Protease&Phosphatase inhibitor cocktail 100× ThermoScientific cat. no. 1861281) and 1 mM PMSF (Fluka cat. no. 93482). Cleared lysates were stored in Eppendorf tubes at −80° C. until use, and protein concentration in lysates was determined using Pierce 660 nm Protein Assay Reagent (ThermoScientific cat. no. 22660). 20 μg proteins were diluted in 4× Laemmli buffer (Biorad cat. no. 161-0747) containing 10% beta-mercaptoethanol, separated by SDS-PAGE using 10% gels, and then transferred to PVDF membranes (Trans Blot Turbo Transfer Pack BioRad cat. no. 1704156) by Trans-Blot® Turbo™ System semidry blotting methodology (BioRad). Primary antibodies were incubated in TBS-0.1% Tween-20 buffer containing 3% BSA Bovine Albumin Fr.V (Millipore cat. no. 81-053-3) overnight at 4° C. The following primary antibodies were used: Mouse anti-phosphoepitope SR proteins clone 1H4 (Millipore cat. no. MABE50) diluted 1:5000, and rabbit anti-GAPDH clone 14C10 (Cell Signaling cat. no. 2118S) to control for equal protein loading, diluted 1:2000. HRP-conjugated secondary antibodies were incubated one hour at room temperature diluted 1:5000 in TBS-0.1% Tween-20 buffer containing 5% nonfat-dried bovine milk (Sigma cat. no. M7409). The following secondary antibodies were used: Goat anti-mouse-HRP (Jackson cat. no. 115-035-146) and goat anti-rabbit-HRP (Jackson cat. no. 111-035-144). Membranes were incubated with ECL Prime Western Blot Detection Reagent (Amersham cat. no. RPN2236) to detect specific signals using Fusion SOLO S device (Vilber Lourmat). Pixel intensity of the phopsho-SRSF6 (MW 55 kDa in reference to markers) and GAPDH (MW 37 kDa) signals in the Western blots were determined using Evolution-Capt image analysis software (v17.01, Vilber Lourmat). DMSO control was used to set the phospho-SRSF6 signal at baseline, phospho-SRSF6 signals for each sample were normalized by the respective GAPDH signals and percent intensity of P-SRSF6 signal at 100 nM compound compared to DMSO control was calculated (see FIG. 1).

T1 sequence (P49761 whole entry): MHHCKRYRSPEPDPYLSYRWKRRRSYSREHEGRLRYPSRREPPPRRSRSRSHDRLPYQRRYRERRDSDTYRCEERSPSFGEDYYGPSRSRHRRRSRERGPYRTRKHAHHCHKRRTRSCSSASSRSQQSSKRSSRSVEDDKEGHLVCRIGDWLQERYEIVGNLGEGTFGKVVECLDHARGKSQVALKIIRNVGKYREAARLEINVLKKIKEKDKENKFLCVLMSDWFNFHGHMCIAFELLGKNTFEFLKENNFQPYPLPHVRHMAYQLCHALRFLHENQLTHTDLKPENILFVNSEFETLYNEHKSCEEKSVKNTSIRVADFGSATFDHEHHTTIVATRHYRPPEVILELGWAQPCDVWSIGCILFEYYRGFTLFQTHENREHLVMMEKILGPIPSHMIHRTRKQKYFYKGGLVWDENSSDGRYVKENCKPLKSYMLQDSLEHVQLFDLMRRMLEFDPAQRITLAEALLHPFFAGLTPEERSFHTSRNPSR

For the compound `COc1ccc2c(c1)/C(=N\OC[C@@H]1CNC(=O)O1)C(C)(C)c1c(N)ncnc1-2` [Example 13, (5S)-5-[[(Z)-(4-amino-8-methoxy-5,5-dimethyl-benzo[h]quinazolin-6-ylidene)amino]oxymethyl]oxazolidin-2-one], the concentration for 50% growth inhibition (GI50) in assay [1] is 1200 nM. For the same compound, the 50% inhibitory concentration (IC50) in assay [2] is 4.3 nM. Moreover, the activity at 0.1 µM in assay [3] is 28%.

Take `CC1(C)/C(=N/OCCO)c2cc(O[C@H]3CC[C@H](N)CC3)ccc2-c2ncnc(N)c21` [Example 19, 2-[(Z)-[4-amino-8-(trans-4-aminocyclohexoxy)-5,5-dimethyl-benzo[h]quinazolin-6-ylidene]amino]oxyethanol]: in assay [1], the GI50 stood at 445 nM. Besides, the IC50 in assay [2] was determined as 20.2 nM. In assay [3], the activity at 0.1 µM came to 25%.

As for `C#CCO/N=C1\c2cc(O[C@H]3CC[C@H](N)CC3)ccc2-c2ncnc(N)c2C1(C)C` [Example 21, (6Z)-8-(trans-4-aminocyclohexoxy)-5,5-dimethyl-6-prop-2-ynoxyimino-benzo[h]quinazolin-4-amine], the GI50 in assay [1] amounted to 569 nM. In assay [2], the 50% inhibitory concentration (IC50) came to 27.2 nM. Also, the activity at 0.1 µM in assay [3] stood at 12%.

As for `CC1(C)/C(=N/OCCCC#N)c2cc(O[C@H]3CC[C@H](N)CC3)ccc2-c2ncnc(N)c21` [Example 27, 4-[(Z)-[4-amino-8-(trans-4-aminocyclohexoxy)-5,5-dimethyl-benzo[h]quinazolin-6-ylidene]amino]oxybutanenitrile], the concentration for 50% growth inhibition (GI50) in assay [1] was found to be 269 nM. Further, the IC50 in assay [2] came to 16.1 nM. Besides, the activity at 0.1 µM in assay [3] is 26%.

For the compound `CC1(C)/C(=N/OC[C@@H]2CNC(=O)O2)c2cc(O[C@H]3CC[C@H](N)CC3)ccc2-c2ncnc(N)c21` [Example 38, (5S)-5-[[(Z)-[4-amino-8-(trans-4-aminocyclohexoxy)-5,5-dimethyl-benzo[h]quinazolin-6-ylidene]amino]oxymethyl]oxazolidin-2-one], in assay [1], the GI50 was over 2000 nM. Besides, in assay [2], the IC50 is 4.16 nM. Further, the activity at 0.1 µM in assay [3] amounted to 48%.

Turning to `CO/N=C1\c2cc(OC)ccc2-c2ncnc(N)c2C1(C)C` [Example 40, (6Z)-8-methoxy-6-methoxyimino-5,5-dimethyl-benzo[h]quinazolin-4-amine], in assay [1], the GI50 is over 2000 nM. Also, the half-maximal inhibitory concentration (IC50) in assay [2] was 21.7 nM. Besides, in assay [3], the activity at 0.1 µM turned out to be 45%.

For `CO/N=C1\c2cc(CC3CCNCC3)ccc2-c2ncnc(N)c2C1(C)C` [Example 70, (6Z)-6-methoxyimino-5,5-dimethyl-8-(4-piperidylmethyl)benzo[h]quinazolin-4-amine], the 50% growth inhibitory concentration (GI50) in assay [1] stood at 630 nM. Further, in assay [2], the IC50 amounted to 9.1 nM. The activity at 0.1 µM in assay [3] stood at 34%.

As to `CO/N=C1\c2cc(C[C@H]3CC[C@H](N)CC3)ccc2-c2ncnc(N)c2C1(C)C` [Example 74, (6Z)-8-[(trans-4-aminocyclohexyl)methyl]-6-methoxyimino-5,5-dimethyl-benzo[h]quinazolin-4-amine], the 50% growth inhibitory concentration (GI50) in assay [1] came out at 255 nM. Besides, the IC50 in assay [2] worked out at 4.8 nM. Besides, in assay [3], the activity at 0.1 µM amounted to 28%.

With `C[C@H](O)CO/N=C1\c2cc(O[C@H]3CC[C@H](N)CC3)ccc2-c2ncnc(N)c2C1(C)C` [Example 79, (2S)-1-[(Z)-[4-amino-8-(trans-4-aminocyclohexoxy)-5,5-dimethyl-benzo[h]quinazolin-6-ylidene]amino]oxypropan-2-ol], the 50% growth inhibitory concentration (GI50) in assay [1] is 971 nM. Moreover, the IC50 in assay [2] stood at 40.7 nM. In addition, in assay [3], the activity at 0.1 µM was 34%.

On to `COCCO/N=C1\c2cc(O[C@H]3CC[C@@H](N)CC3)ccc2-c2ncnc(N)c2C1(C)C` [Example 82, (6Z)-8-(cis-4-aminocyclohexoxy)-6-(2-methoxyethoxyimino)-5,5-dimethyl-benzo[h]quinazolin-4-amine], for which the GI50 in assay [1] stood at 98.5 nM. In assay [2], the half-maximal inhibitory concentration (IC50) is 9.7 nM. Further, the activity at 0.1 µM in assay [3] turned out to be 15%.

Regarding `CC1(C)/C(=N/OCCC#N)c2cc(O[C@H]3CC[C@@H](N)CC3)ccc2-c2ncnc(N)c21` [Example 83, 3-[(Z)-[4-amino-8-(cis-4-aminocyclohexoxy)-5,5-dimethyl-benzo[h]quinazolin-6-ylidene]amino]oxypropanenitrile], the GI50 in assay [1] stood at 96.2 nM. The 50% inhibitory concentration (IC50) in assay [2] was 4.9 nM. Besides, the activity at 0.1 µM in assay [3] is 9%.

As for `CC1(C)/C(=N/OCCO)c2cc(O[C@H]3CC[C@@H](N)CC3)ccc2-c2ncnc(N)c21` [Example 87, 2-[(Z)-[4-amino-8-(cis-4-aminocyclohexoxy)-5,5-dimethyl-benzo[h]quinazolin-6-ylidene]amino]oxyethanol], the GI50 in assay [1] came to 255 nM. In addition, the IC50 in assay [2] is 18.7 nM. Moreover, the activity at 0.1 µM in assay [3] worked out at 10%.

Take `COCCN1C[C@@H](CO/N=C2\c3cc(Br)ccc3-c3ncnc(N)c3C2(C)C)OC1=O` [Example 90, (5S)-5-[[(Z)-(4-amino-8-bromo-5,5-dimethyl-benzo[h]quinazolin-6-ylidene)amino]oxymethyl]-3-(2-methoxyethyl)oxazolidin-2-one]: the GI50 in assay [1] stood at 863 nM. Also, the IC50 in assay [2] was 9.37 nM. Further, the activity at 0.1 µM in assay [3] was determined as 29%.

With `CC1(C)/C(=N/OC[C@@H]2CN(CCO)C(=O)O2)c2cc(Br)ccc2-c2ncnc(N)c21` [Example 91, (5S)-5-[[(Z)-(4-amino-8-bromo-5,5-dimethyl-benzo[h]quinazolin-6-ylidene)amino]oxymethyl]-3-(2-hydroxyethyl)oxazolidin-2-one], in assay [1], the GI50 amounted to 459 nM. For the same compound, in assay [2], the half-maximal inhibitory concentration (IC50) was found to be 5.1 nM. Moreover, the activity at 0.1 µM in assay [3] worked out at 15%.

With `CC1(C)/C(=N/OC[C@@H]2CNC(=O)O2)c2cc(I)ccc2-c2ncnc(N)c21` [Example 93, (5S)-5-[[(Z)-(4-amino-8-iodo-5,5-dimethyl-benzo[h]quinazolin-6-ylidene)amino]oxymethyl]oxazolidin-2-one], in assay [1], the 50% growth inhibitory concentration (GI50) is 240 nM. The IC50 in assay [2] was 6.2 nM. The activity at 0.1 µM in assay [3] was determined as 19%.

On to `CC1(C)/C(=N/OC[C@@H]2CN(CCO)C(=O)O2)c2cc(I)ccc2-c2ncnc(N)c21` [Example 97, (5S)-5-[[(Z)-(4-amino-8-iodo-5,5-dimethyl-benzo[h]quinazolin-6-ylidene)amino]oxymethyl]-3-(2-hydroxyethyl)oxazolidin-2-one], for which the 50% growth inhibitory concentration (GI50) in assay [1] turned out to be 158 nM. In addition, the IC50 in assay [2] was determined as 1.7 nM. The activity at 0.1 µM in assay [3] was 21%.

Consider `COCCO/N=C1\c2cc(O[C@H]3CC[C@H](N)CC3)ccc2-c2ncnc(N)c2C12CCCC2` [Example 99, (6Z)-8-(trans-4-aminocyclohexoxy)-6-(2-methoxyethoxyimino)spiro[benzo[h]quinazoline-5,1′-cyclopentane]-4-amine], for which the 50% growth inhibitory concentration (GI50) in assay [1] came to 27.6 nM. Besides, the IC50 in assay [2] was 5.8 nM. Also, the activity at 0.1 µM in assay [3] turned out to be 17%.

Consider `N#CCCO/N=C1\c2cc(O[C@H]3CC[C@@H](N)CC3)ccc2-c2ncnc(N)c2C12CCCC2` [Example 101, 3-[(Z)-[4-amino-8-(cis-4-aminocyclohexoxy)spiro[benzo[h]quinazoline-5,1′-cyclopentane]-6-ylidene]amino]oxypropanenitrile], for which, in assay [1], the GI50 came out at 4.5 nM. Moreover, the IC50 in assay [2] turned out to be 1.2 nM. Further, in assay [3], the activity at 0.1 µM was determined as 8%.
